Experiments:
[1] = Nucleophilic reactivity study with L-Lysine; conditions: L-Lysine 5 equiv, 22±2° C.
Description: General Experimental Protocol for Nucleophilic Reactivity Study with L-Lysine
To a 4 mL scintillation vial containing Compound A-E (in respective experiments; 1 eq.) was added a stir bar followed by 70 μL of HPLC grade acetonitrile. In another 4 mL scintillation vial containing L-Lysine monohydrochloride (5 eq.) was added 130 μL HPLC grade water followed by diisopropylethylamine (5 eq.). The solutions were combined and allowed to stir at room temperature (22±2° C.). Timed aliquots at time (T)=15, 30, 60 and 120 minutes were taken and analyzed by HPLC-MS using elution method 1 (Table 2).

[2] = Comparative active ester reactivity study with HOPO nucleophile; conditions: 1,2-HOPO 1 eq., 22±2° C.
Description: (§1) General Experimental Protocol for Comparative Active Ester Reactivity Study with HOPO or HOA Nucleophiles
(§2) To a 4 mL scintillation vial containing Compound A-E (in respective experiments; 1 eq.) was added a stir bar followed by 150 μL of HPLC grade acetonitrile. In another 4 mL scintillation vial containing a respective nucleophile (1 eq.) was added 280 μL HPLC grade water. The solutions were combined and allowed to stir at room temperature (22±2° C.) for 4 hours. Timed aliquots at time (T)=15, 30, 60, 120 and 240 minutes were taken and analyzed by HPLC-MS using elution method 1 (Table 1).

pH stability study = format: physicochemical; conditions: 20° C.
Description: To a 4 mL scintillation vial containing Compound A-E (in respective experiments; 0.8 mg) was added 4 mL of either a pH 3, pH 5 pH 7 or pH 9 buffer to create a 0.2 mg/mL solution. 2 mL of this solution was added to a 2 mL HPLC vial and placed in the auto sampler of an HPLC-MS at 20° C. Timed aliquots at time (T)=15, 30, 60, 120, 240 and 480 minutes were taken and analyzed by HPLC-MS using elution method 1 (Table 3). […]
pH 3 Buffer: Citric acid/Na2HPO4 (79.45 mL 0.1 M-citric acid and 20.55 mL 0.2-Na2HPO4) pH 5 Buffer: Citric acid/Na2HPO4 (48.50 mL 0.1 M-citric acid and 51.50 mL 0.2-Na2HPO4) pH 7 Buffer: Citric acid/Na2HPO4 (17.65 mL 0.1 M-citric acid and 82.35 mL 0.2-Na2HPO4) pH 9 Buffer: Sodium Carbonate/Sodium Bicarbonate (10 mL 0.1 M-Na2CO3 and 90 mL 0.1-NaHCO3)

[3] = Temperature stability study in H2O; format: physicochemical
Description: 20° C.: To a 4 mL scintillation vial containing Compound A-E (in respective experiments; 0.8 mg) was added 4 mL of HPLC grade water to create a 0.2 mg/mL solution. 2 mL of this solution was added to a 2 mL HPLC vial and placed in the auto sampler of an HPLC-MS at 20° C. Timed aliquots at time (T)=15, 30, 60, 120, 240 and 480 minutes were taken and analyzed by HPLC-MS using elution method 1 (Table 4).
50° C.: To a 4 mL scintillation vial containing Compound A-E (in respective experiments; 0.8 mg) was added a stir bar followed by 4 mL of HPLC grade water to create a 0.2 mg/mL solution. The vial was capped and allowed to stir in a 50° C. oil bath for 8 hours. Timed aliquots at time (T) =15, 30, 60, 120, 240 and 480 minutes were taken and analyzed by HPLC-MS using elution method 1 (Table 4).

[4] = Comparative active ester reactivity study with HOA nucleophile (benzhydroxamic acid); conditions: Benzhydroxamic Acid 1 eq., 22±2° C.
Description: as §1, §2

[5] = Comparative active ester reactivity study with HOA nucleophile (N-hydroxy-N-methylbenzamide); conditions: N-Hydroxy-N-methylbenzamide 1 eq., 22±2° C.
Description: as §1, §2

DMSO stability study = format: physicochemical
Description: To a 4 mL scintillation vial containing Compound A-E (in respective experiments; 4 mg) was added a stir bar followed by 500 μL of anhydrous dimethyl sulfoxide and was allowed to stir at room temperature (22±2° C.) for 4 hours. Timed aliquots at time (T)=15, 30, 60, 120 and 240 minutes were taken, dissolved in water to achieve 2% DMSO composition and analyzed by HPLC-MS using elution method 1 (Table 5).

Q: With `O=C(CCc1cccnc1)Oc1c(F)cccc1F` [Compound B, 2,6-Difluorophenyl-3-(pyridin-3-yl)propanoate] as the compound, how does the “% Active Ester Remaining” value ([1]; 15 min) read?
A: 0.20%

Q: And the “% Active Ester Remaining” value ([1]; 30 min)?
A: 0%

Q: What about the “% Active Ester Remaining” value ([2]; 15 min) of the same compound?
A: 98.85%

Q: And the “% Active Ester Remaining” value ([2]; 30 min)?
A: 96.23%

Q: And the “% Active Ester Remaining” value ([2]; 60 min)?
A: 90.85%

Q: What about the “% Active Ester Remaining” value ([2]; 120 min) of the same compound?
A: 84.98%

Q: And the “% Active Ester Remaining” value ([2]; 240 min)?
A: 69.55%

Q: What about the “% Remaining” value (pH stability study; pH 3 buffer, 15 min) of the same compound?
A: 100%

Q: And the “% Remaining” value (pH stability study; pH 3 buffer, 30 min)?
A: 99.56%

Q: And the “% Remaining” value (pH stability study; pH 3 buffer, 60 min)?
A: 99.19%

Q: And the “% Remaining” value (pH stability study; pH 3 buffer, 120 min)?
A: 98.69%

Q: And the “% Remaining” value (pH stability study; pH 3 buffer, 240 min)?
A: 97.41%

Q: What about the “% Remaining” value (pH stability study; pH 3 buffer, 480 min) of the same compound?
A: 95.05%

Q: And the “% Remaining” value (pH stability study; pH 5 buffer, 15 min)?
A: 100%

Q: What about the “% Remaining” value (pH stability study; pH 5 buffer, 30 min) of the same compound?
A: 99.50%

Q: And the “% Remaining” value (pH stability study; pH 5 buffer, 60 min)?
A: 99.05%

Q: What about the “% Remaining” value (pH stability study; pH 5 buffer, 120 min) of the same compound?
A: 98.27%

Q: What about the “% Remaining” value (pH stability study; pH 5 buffer, 240 min) of the same compound?
A: 96.36%

Q: And the “% Remaining” value (pH stability study; pH 5 buffer, 480 min)?
A: 92.97%

Q: What about the “% Remaining” value (pH stability study; pH 7 buffer, 15 min) of the same compound?
A: 99.35%

Q: What about the “% Remaining” value (pH stability study; pH 7 buffer, 30 min) of the same compound?
A: 98.45%

Q: What about the “% Remaining” value (pH stability study; pH 7 buffer, 60 min) of the same compound?
A: 97.44%

Q: What about the “% Remaining” value (pH stability study; pH 7 buffer, 120 min) of the same compound?
A: 95.40%

Q: And the “% Remaining” value (pH stability study; pH 7 buffer, 240 min)?
A: 91.66%

Q: And the “% Remaining” value (pH stability study; pH 7 buffer, 480 min)?
A: 84.15%

Q: What about the “% Remaining” value (pH stability study; pH 9 buffer, 15 min) of the same compound?
A: 78.39%

Q: And the “% Remaining” value (pH stability study; pH 9 buffer, 30 min)?
A: 65.31%

Q: And the “% Remaining” value (pH stability study; pH 9 buffer, 60 min)?
A: 54.47%

Q: And the “% Remaining” value (pH stability study; pH 9 buffer, 120 min)?
A: 38.67%

Q: What about the “% Remaining” value (pH stability study; pH 9 buffer, 240 min) of the same compound?
A: 19.98%

Q: And the “% Remaining” value (pH stability study; pH 9 buffer, 480 min)?
A: 5.01%

Q: And the “% Remaining” value ([3]; 20° C., 15 min)?
A: 99.63%

Q: And the “% Remaining” value ([3]; 20° C., 30 min)?
A: 99.20%

Q: And the “% Remaining” value ([3]; 20° C., 60 min)?
A: 98.92%

Q: What about the “% Remaining” value ([3]; 20° C., 120 min) of the same compound?
A: 98.12%

Q: What about the “% Remaining” value ([3]; 20° C., 240 min) of the same compound?
A: 96.98%

Q: What about the “% Remaining” value ([3]; 20° C., 480 min) of the same compound?
A: 95.14%

Q: What about the “% Remaining” value ([3]; 50° C., 15 min) of the same compound?
A: 97.57%

Q: And the “% Remaining” value ([3]; 50° C., 30 min)?
A: 92.71%

Q: And the “% Remaining” value ([3]; 50° C., 60 min)?
A: 89.62%

Q: And the “% Remaining” value ([3]; 50° C., 120 min)?
A: 85.20%

Q: And the “% Remaining” value ([3]; 50° C., 240 min)?
A: 79.93%

Q: What about the “% Remaining” value ([3]; 50° C., 480 min) of the same compound?
A: 68.06%

Q: What about the “% Active Ester Remaining” value ([4]; 15 min) of the same compound?
A: 81.80%

Q: What about the “% Active Ester Remaining” value ([4]; 30 min) of the same compound?
A: 69.62%

Q: What about the “% Active Ester Remaining” value ([4]; 60 min) of the same compound?
A: 56.57%

Q: And the “% Active Ester Remaining” value ([4]; 120 min)?
A: 42.81%

Q: And the “% Active Ester Remaining” value ([4]; 240 min)?
A: 28.60%

Q: And the “% Active Ester Remaining” value ([5]; 15 min)?
A: 91.32%

Q: What about the “% Active Ester Remaining” value ([5]; 30 min) of the same compound?
A: 84.96%

Q: And the “% Active Ester Remaining” value ([5]; 60 min)?
A: 73.90%

Q: And the “% Active Ester Remaining” value ([5]; 120 min)?
A: 56.72%

Q: What about the “% Active Ester Remaining” value ([5]; 240 min) of the same compound?
A: 35.97%

Q: What about the “% Active Ester Remaining in DMSO at 22 ± 2° C.” value (from here on “% Active Ester Remaining in DMSO”) (DMSO stability study; 15 min) of the same compound?
A: 99.89%

Q: And the “% Active Ester Remaining in DMSO” value (DMSO stability study; 30 min)?
A: 99.81%

Q: What about the “% Active Ester Remaining in DMSO” value (DMSO stability study; 60 min) of the same compound?
A: 99.79%

Q: And the “% Active Ester Remaining in DMSO” value (DMSO stability study; 120 min)?
A: 99.78%

Q: What about the “% Active Ester Remaining in DMSO” value (DMSO stability study; 240 min) of the same compound?
A: 99.46%

Reference: patent US20240139333A1, “2,6-DICHLOROPHENYL ESTER COMPOUNDS AND USE THEREOF” (Fusion Pharmaceuticals Inc., priority 2021, published 2024)
